Laboratory results from US20250283035A1, “MORPHOGENIC COMPOUND-RELEASING MICROSPHERES AND USE IN BIOINK” (UVic Industry Partnerships Inc., priority 2018, published 2025).
Several values for one entry are separate records, joined by “and”; a condition that tells them apart may be missing. Equal entries are not always repeated. Where two headings read alike, the source gives them in different places.

Experiments:
[1] = cited from earlier work
[2] = drug in microspheres, literature values, cited from earlier work
[3] = 46-day purmorphamine release study from PCL microspheres in PBS; assay type: physicochemical
Description: A 46-day release study was performed to determine the release kinetics of purmorphamine. Each sample contained 10 mg of microspheres and 1 ml of PBS placed on 1.5 ml micro tubes (Axygen®). Samples for each day of collection (n=3) were placed on a VWR® mini shaker at 330 rpm at 37° C. and were collected every 4 days. After collection, samples were washed with de-ionized water and freeze-dried for further analysis. The drug was extracted from the microspheres and then quantified with high-performance liquid chromatography (HPLC) to estimate the puro concentration in the microspheres. Next, 10 mg of microspheres was placed in 1.5 ml microtubes in triplicate. […] The samples were then placed on the vortex mixer (Eppendorf® MixMate®) at 2500 rpm for 5 minutes. […] The samples were then placed at −80° C. for 5 minutes followed by centrifugation (Eppendorf 5424) at 1500 rpm for five minutes. The samples were filtered using 0.2 μm PTFE syringe filters before adding the supernatant to amber vials. HPLC was performed using an Agilent 1200 equipped with quaternary pump and diode-array detector (DAD) to quantify the amount of puro present in samples. A standard of puro with eleven dilutions of a stock solution diluted in ACN was used to determine the concentrations of the samples. The column used was an Eclipse Plus C18 (Agilent) with 5 μm particle size, 4.6 mm internal diameter (ID), and was 150-mm long with similar phase and ID guard column. Samples were analyzed at 300 nm after mass spectroscopy was used to generate a spectrum for puro. Mass spectroscopy information was acquired using an Ultimate 3000 HPLC system connected to an Orbitrap (Thermo Fisher Scientific). The system was used in direct infusion mode with no separation. Solvents used for this analysis were HPLC-grade ACN mixed with […] dispensed from a Milli-Q integral purification system (Millipore, ON, Canada). Both contained 0.1% V/V trifluoroacetic acid (TFA) (Fisher Scientific, Hampton, NH). […] ChemStation software was used for data analysis with auto-integration adjusted manually when needed.

[4] = Degradation of fibrin scaffolds containing drug (Example 3)
[5] = cited from earlier work; remark: listed apart in the source
[6] = In vitro guggulsterone release study from PCL microspheres in PBS; assay type: physicochemical
Description: In vitro release studies were performed in triplicate. Ten milligrams of microspheres was suspended in 1 mL of PBS in a microtube. The tubes were then loaded onto a Sarstedt Sarmix mr-1 tube rotator and incubated at 37° C. The PBS supernatant for each tube was replaced every 2 days while tubes were removed and collected from the rotator at the following predetermined time points: day 2, 4, 8, 12, 16, 20, 24, 28, 36, and 44. For the collected tubes, the PBS supernatant was removed, and the microspheres were washed with deionized water, lyophilized, and weighed. The remaining GS concentration inside the microspheres was determined as previously described by dissolving microspheres with DCM, extracting the drug/precipitating PCL with 100% ethanol, and reading the absorbance at 255 nm using a Tecan Infinite® M200Pro plate reader (Gomez, et al., 2015). The amount of GS released was calculated by subtracting the GS remaining in the microspheres from the theoretical GS present in each amount of microspheres at day 0. Percentages of the drug that were assumed to be released for each sample day were calculated by comparing drug amounts leftover and initial amounts of the drug inside the microspheres to create a cumulative release graph.

[7] = Guggulsterone encapsulation efficiency (extraction, HPLC-MS); assay type: physicochemical; conditions: PCL microspheres, 0.6 μg/mg GS/PCL; of total GS added
Description: The amount of GS encapsulated per unit weight of microspheres was determined by extracting the drug from the fabricated microspheres. A measured amount of lyophilized microspheres was placed in a 1.5 mL propylene microtube, and 200 μL of ACN was added to each sample. The samples were vortexed at 3000 rpm for 30 seconds, vortexed for 5 minutes at 350 rpm (Eppendorf® MixMate®), and mixed with a micropipette for 10 seconds. These mixing steps were repeated twice to dissolve the PCL. Next, 1000 μL of additional ACN was added to the samples and mixed by micropipette for 10 seconds and then vortexed at 3000 rpm for 30 seconds. The solution was then centrifuged at 22° C. and 13000 rpm for 5 min using an Eppendorf 5424 Microcentrifuge. Thereafter, 1000 μL of the supernatant was transferred to a microtube and diluted as necessary for high performance liquid chromatography-mass spectrometry (HPLC-MS). The concentration of the drug in the sample was determined using HPLC-MS (Ultimate 3000 MSQ, Thermo Scientific with Chromeleon™ software) and run against a GS standard composed of five dilutions of a stock solution composed of GS dissolved in ACN. […]

[8] = quoted in Example 1 from ref [42]; cited from earlier work
hiPS aggregates [9] = experiment: Flow cytometry of βIII-tubulin (TUJ1), Olig2, GFAP in hiPS aggregates (Example 2); assay type: cell-based, human; parameters: unit of the concentration uncertain
Description: ReLeSR™ was used to select and remove undifferentiated hiPSs from the wells. Uniform hiPS aggregates were formed by adding a single cell suspension in STEMdiff™ Neural Induction Medium of 1×106 hiPSs to wells in AggreWell™ 800 plates and centrifuged for 5 min at 100×g to deposit the cells at the bottom of each microwell. Before incorporation with the cells, the microspheres were sterilized by low power air-plasma treatment (Harrick PDC-32G) for 30 seconds as described previously. When forming microsphere-incorporated hiPS aggregates, 0.5 mg of microspheres suspended in STEMdiff™ Neural Induction Medium was added to each AggreWell™ 800 well for a total of 2 mL of media in each well and centrifuged for 5 min at 100×g (FIGS. 11A-11B). The aggregates in the AggreWell™ 800 plates were maintained in 2 mL of STEMdiff™ Neural Induction Medium with daily media changes for 5 days. On day 5, the aggregates were harvested for immunocytochemistry or transferred to PLO/laminin-coated 24-well plates at a single aggregate per well for the remaining duration of the cell study (until day 12 or day 20). […] Negative control treatments contained aggregates without microspheres and media without soluble drug added. […]
Cell marker expression was quantified with flow cytometry on day 20 for β-tubulin III, Olig-2, and GFAP. […]

hiPS aggregates [10] = experiment: Neurite morphology analysis of hiPS aggregates, IncuCyte (Example 2); assay type: cell-based, human; conditions: day 12
Description: ReLeSR™ was used to select and remove undifferentiated hiPSs from the wells. Uniform hiPS aggregates were formed by adding a single cell suspension in STEMdiff™ Neural Induction Medium of 1×106 hiPSs to wells in AggreWell™ 800 plates and centrifuged for 5 min at 100×g to deposit the cells at the bottom of each microwell. Before incorporation with the cells, the microspheres were sterilized by low power air-plasma treatment (Harrick PDC-32G) for 30 seconds as described previously. […]
Immunostained cell aggregates were imaged with an IncuCyte® ZOOM automatic live-cell imaging system (Essen BioScience, Ann Arbor, MI) at 10× magnification. Quantification of the morphological metrics of neurite length and branch points was performed using IncuCyte® ZOOM Software (2016A). Using the NeuroTrack™ software module, day 12 and day 20 green channel fluorescence (anti-beta-tubulin III positive) images were analyzed by masking the total neurite coverage and calculating the average length and branch points with the same processing definition. The cell aggregate area was analyzed for day 12 images using a NeuroTrack™ software processing definition, whereas a Basic Analyzer processing definition (used for confluence masking) was used to analyze the day 20 images. […]

[11] = ref [50]; cited from earlier work
[12] = if release rate consistent beyond 44 days

CC1=C(/C=C/C(C)=C/C=C/C(C)=C/C(=O)O)C(C)(C)CCC1 [RA, retinoic acid]
cumulative RA release from PCL microspheres ([1]; day 28, RA concentration 7.5 times greater): ~53%
cumulative RA release from PCL microspheres ([1]; day 28, lower RA concentration): 28%
encapsulation efficiency, previously reported [2]: 60.0%
encapsulation efficiency, previously reported ([2]; listed as retinoic acid): ~60%

C[C@]12CCC(=O)C=C1CC[C@@H]1[C@@H]2[C@@H](O)C[C@@]2(C)[C@H]1CC[C@]2(O)C(=O)CO [hydrocortisone]
encapsulation efficiency, previously reported [2]: ~9%

c1ccc2c(Oc3nc(Nc4ccc(N5CCOCC5)cc4)c4ncn(C5CCCCC5)c4n3)cccc2c1 [puro, purmorphamine]
cumulative puro release ([3]; day 28): 68%
cumulative puro release ([3]; day 44): ~87%
cumulative puro release ([3]; day 46, of theoretically encapsulated drug): 91%
puro released on average per day ([3]; from 0.34 mg of puro-loaded microspheres added to cell aggregates): ~0.0748 µg
puro released every day ([3]; from 10 mg of microspheres): 2.2 µg

guggulsterone [GS]
degradation of fibrin scaffolds containing the drug [4]: degraded much faster than samples containing RA
cumulative GS release, previously reported ([5]; day 28, quoted in Example 1 from refs [40, 42]): 45%
cumulative GS release, previously reported ([5]; day 44, quoted in Example 1 from refs [40, 42]): 55%
concentration of GS released ([6]; 0.5 mg of microspheres per aggregate-forming well): ~0.93 ng/mL
cumulative GS release ([6]; day 28): ~45%
cumulative GS release ([6]; day 44 (final day), of drug theoretically encapsulated): ~60% and ~62%
average release of GS per day ([6]; from 10 mg of microspheres, slope of graph): 37 ng
additional duration of GS delivery beyond 44 days [6, 12]: 27 days
total duration of drug release [6, 12]: 71 days
total amount of guggulsterone encapsulated ([6]; in 10 mg of microspheres): ~2550 ng
theoretical total amount of drug initially in each sample ([6]; in 10 mg of microspheres, day 0): ~2.5 µg
GS encapsulation efficiency [7]: 42.4±3.5% and ~42%
GS encapsulation efficiency, previously reported [8]: 42.4%
TUJ1 expression (flow cytometry) (hiPS aggregates [9]; day 20, soluble GS at 0.25 µM): ~4%
TUJ1 expression (flow cytometry) (hiPS aggregates [9]; day 20, soluble GS at 2.5 µM): ~7%
neurite length per cell cluster area (hiPS aggregates [10]): greater neurite length compared to the negative control
susceptibility to degradation [11]: susceptible to degradation, including photodegradation

O=C1CN=C(c2ccccc2Cl)c2cc([N+](=O)[O-])ccc2N1 [Clonazepam]
encapsulation efficiency, previously reported [2]: 72.6-95.1%

CC(=O)OCC(=O)[C@@]1(O)CC[C@H]2[C@@H]3CCC4=CC(=O)CC[C@]4(C)[C@H]3[C@@H](O)C[C@@]21C [hydrocortisone 21-acetate]
encapsulation efficiency, previously reported [2]: ~55%
